The values that follow come from PubChem BioAssay AID2744 (NMMLSC, 2010).

The term EC50 denotes the concentration needed to bring the measured effect to its halfway point.

The source made the active and inactive calls.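 How the source made its calls: active means fitted half-maximal concentration for changing reporter fluorescence at or below a set limit; inactive means the rest.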

The experiment deals with Citrate synthase, peroxisomal (Saccharomyces cerevisiae (strain ATCC 204508 / S288c)) (UniProt P08679). The experiment is described as follows: yeast TOR pathway CIT2-GFP reporter potency – flow cytometry, MLPCN hits, dose response (AID 2744). As to conditions: S. cerevisiae CIT2-GFP strain, 3 h; for GFP fluorescence, higher = induction: at 33 µM (top of the series).
Citrate synthase, peroxisomal (Saccharomyces cerevisiae (strain ATCC 204508 / S288c)), sequence (P08679 whole entry, looked up): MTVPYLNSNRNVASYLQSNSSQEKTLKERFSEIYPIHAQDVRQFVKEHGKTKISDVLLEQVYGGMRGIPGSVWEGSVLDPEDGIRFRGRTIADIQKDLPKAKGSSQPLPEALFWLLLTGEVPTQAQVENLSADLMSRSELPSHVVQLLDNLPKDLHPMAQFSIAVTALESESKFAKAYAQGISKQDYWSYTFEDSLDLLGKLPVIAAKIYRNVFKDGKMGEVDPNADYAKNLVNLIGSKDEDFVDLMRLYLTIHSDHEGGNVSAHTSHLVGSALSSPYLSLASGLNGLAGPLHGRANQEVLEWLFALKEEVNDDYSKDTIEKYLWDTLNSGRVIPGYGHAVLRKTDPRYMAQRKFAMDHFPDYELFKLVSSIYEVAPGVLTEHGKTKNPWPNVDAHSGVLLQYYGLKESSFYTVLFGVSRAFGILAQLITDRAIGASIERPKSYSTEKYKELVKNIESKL

In the case of `CCN(CC)c1ccc2cc(-c3nc(-c4ccc(OC)cc4)cs3)c(=O)oc2c1`, the “GFP fluorescence, higher = induction” value was “inactive”.

As to `C=CCOc1ccc(C(=O)/C=C2/C(=O)Nc3ccccc32)cc1`, the “GFP fluorescence, higher = induction” value was “inactive”.

Turning to `O=C(Oc1oc(-c2ccco2)nc1C=Nc1ccccc1)c1ccoc1`, the “GFP fluorescence, higher = induction” value was “inactive”.

As for `O=c1oc2cc(Oc3c([N+](=O)[O-])cc(C(F)(F)F)cc3[N+](=O)[O-])ccc2c2c1CCCC2`, the “GFP fluorescence, higher = induction” value is “inactive”.

As to `COc1ccc(C(c2c(C)[nH]n(C(N)=S)c2=O)C(C#N)C#N)cc1` (configuration not stated), the “GFP fluorescence, higher = induction” value was “inactive”.

For `O=C(Nc1ccc(Cl)cc1Cl)c1cccc(N2C(=O)C=CC2=O)c1`, the “GFP fluorescence, higher = induction” value was “inactive”.

Take `O=C1N(c2ccccc2C(F)(F)F)O[C@@]1(c1ccccc1)C1CCCCC1`: the “GFP fluorescence, higher = induction” value is “inactive”.

For `Cc1ccc(/C=C2/SC(=S)N(C3CCCCC3)C2=O)o1`, the “GFP fluorescence, higher = induction” value was “inactive”.

For the molecule `CC(OC(=O)c1ccco1)C(=O)Nc1nc(-c2ccccc2)cs1` (configuration not stated), the “GFP fluorescence, higher = induction” value was “inactive”.

Consider `CCN(CC)C(=O)Oc1ccnc2cc(Cl)ccc12`, for which the “GFP fluorescence, higher = induction” value is “inactive”.

`Oc1cc(-c2ccc(N3CCCCC3)nc2)cc2cccnc12`: the “GFP fluorescence, higher = induction” value was “inactive”.

`N/C(Cc1ccc(Cl)cc1Cl)=N\OC(=O)c1cccs1`: the EC50 (flow cytometry fluorescence) is 1480 nM.

Take `CC(C)C[C@]1(c2ccccc2)ON(c2ccccc2C(F)(F)F)C1=O`: the “GFP fluorescence, higher = induction” value is “inactive”.

With `COc1ccc([C@]2(C(C)C)ON(c3ccccc3C(F)(F)F)C2=O)cc1`, the “GFP fluorescence, higher = induction” value was “inactive”.

As for `O=C(NCc1ccc2c(c1)OCO2)c1nc(S(=O)(=O)Cc2ccccc2)ncc1Cl`, the “GFP fluorescence, higher = induction” value was “inactive”.

Consider `Cc1ccc(C2=NOC(=O)/C2=C\c2ccc(C)o2)cc1`, for which the “GFP fluorescence, higher = induction” value is “inactive”.

Take `CCOc1cc(C=C2C(=O)c3ccccc3C2=O)ccc1OCC(=O)Nc1ccc(C)cc1`: the “GFP fluorescence, higher = induction” value is “inactive”.

Consider `CS(=O)(=O)c1sc(C#N)c2c1C(=O)CC(c1ccccc1)C2` (configuration not stated), for which the “GFP fluorescence, higher = induction” value is “inactive”.

On to `O=C1C=CC(=O)N1c1ccc(Sc2ccc([N+](=O)[O-])cc2)cc1`, for which the “GFP fluorescence, higher = induction” value is “inactive”.

On to `COc1cccc(/C=N/Nc2ncc(C(F)(F)F)cc2Cl)c1O`, for which the “GFP fluorescence, higher = induction” value is “inactive”.

On to `CCSc1nnc(NC(=O)c2ccccn2)s1`, for which the “GFP fluorescence, higher = induction” value is “inactive”.

In the case of `COc1ccc(C(=O)NC(=S)NNC(=O)c2cnccn2)cc1`, the “GFP fluorescence, higher = induction” value was “inactive”.

Take `COc1ccc(C2(C)ON(c3ccccc3C(F)(F)F)C2=O)cc1` (configuration not stated): the “GFP fluorescence, higher = induction” value was “inactive”.

As to `Clc1cccc(CN2COc3c(cc(Cl)c4cccnc34)C2)c1`, the “GFP fluorescence, higher = induction” value is “inactive”.

On to `CC[C@]1(c2ccccc2C)ON(c2ccccc2C(F)(F)F)C1=O`, for which the “GFP fluorescence, higher = induction” value is “inactive”.

Take `O=c1c2cc(Br)ccc2nc(-c2ccc([N+](=O)[O-])cc2)n1O`: the “GFP fluorescence, higher = induction” value is “inactive”.

Turning to `CC(C)Oc1ccc(C(=O)/C=C2/C(=O)Nc3ccccc32)cc1`, the “GFP fluorescence, higher = induction” value is “inactive”.

On to `COc1ccc2c(c1)c1nnc(SC)nc1n2C`, for which the “GFP fluorescence, higher = induction” value is “inactive”.

`Cc1c(Br)c(=O)oc2c(Br)c(O)c(O)cc12`: the “GFP fluorescence, higher = induction” value is “inactive”.

For `C/C(=N/NC(=O)c1ccc(C(C)(C)C)cc1)c1ccccn1`, the “GFP fluorescence, higher = induction” value is “inactive”.

On to `O=C1NC(=O)C(=Cc2ccc(-c3ccc(Cl)cc3)o2)C(=O)N1`, for which the “GFP fluorescence, higher = induction” value is “inactive”.

For the molecule `C=CCN1C(=O)/C(=C/c2ccc(-c3ccc(F)cc3)o2)SC1=S`, the “GFP fluorescence, higher = induction” value was “inactive”.

On to `CC1=NNC(=O)/C1=C\c1cn(-c2ccccc2)nc1-c1ccccc1`, for which the “GFP fluorescence, higher = induction” value was “inactive”.

For `Oc1c(Br)cc(Br)cc1C=Nc1ccc2c(c1)OCO2`, the “GFP fluorescence, higher = induction” value is “inactive”.

For the molecule `CN(c1ccccc1)c1ccc(/C=c2\s/c(=C(/C#N)C(=O)C(C)(C)C)n(Cc3ccco3)c2=O)cc1`, the “GFP fluorescence, higher = induction” value is “inactive”.

As to `O=C1C2C3C=CC(CO)(O3)C2C(=O)N1c1ccc(-c2ccccc2)cc1` (configuration not stated), the “GFP fluorescence, higher = induction” value was “inactive”.

`O=C(C#Cc1ccccc1)c1ccco1`: the “GFP fluorescence, higher = induction” value was “inactive”.

Turning to `COc1cc(N=c2ssnc2Cl)c(OC)cc1Cl`, the “GFP fluorescence, higher = induction” value is “inactive”.

As to `N#Cc1cc([N+](=O)[O-])c(-n2nnc3ccccc32)c([N+](=O)[O-])c1`, the “GFP fluorescence, higher = induction” value was “inactive”.

On to `O/C=c1\ccc2cccc3nc(C(F)(F)F)nc1c23`, for which the “GFP fluorescence, higher = induction” value is “inactive”.

For the molecule `O=C1CCN(S(=O)(=O)c2ccccc2)CCN1CCOCc1ccc(F)cc1`, the “GFP fluorescence, higher = induction” value is “inactive”.

As to `O=C(/C=C/c1ccc(F)cc1)NC(=S)NNC(=O)c1cnccn1`, the “GFP fluorescence, higher = induction” value is “inactive”.

Consider `Cc1ccc(/C=C2\SC(=S)N(CC3CCCO3)C2=O)o1` (configuration not stated), for which the “GFP fluorescence, higher = induction” value was “inactive”.

With `O=C1C=CC(=O)N1c1cccc(-c2ccccc2)c1`, the “GFP fluorescence, higher = induction” value is “inactive”.

As to `COc1cc(NC(=O)c2ccc(C)cc2)ccc1NC(=O)c1cc2ccccc2o1`, the “GFP fluorescence, higher = induction” value is “inactive”.

With `Cc1cc(C)c(S(=O)(=O)N2CCC(C(=O)NCc3ccc(Cl)cc3Cl)CC2)c(C)c1`, the “GFP fluorescence, higher = induction” value is “inactive”.

As to `CC[C@@]1(c2ccccc2OC)ON(c2ccccc2C(F)(F)F)C1=O`, the “GFP fluorescence, higher = induction” value is “inactive”.

Take `Cc1ccc(N=c2ssnc2Cl)cc1`: the “GFP fluorescence, higher = induction” value was “inactive”.

Consider `CN(C)c1ccc(/C=C/c2cc[n+](C)cc2)cc1`, for which the “GFP fluorescence, higher = induction” value was “inactive”.

With `O=C(Nc1nnc(-c2ccc(F)cc2)o1)c1cccc([N+](=O)[O-])c1`, the “GFP fluorescence, higher = induction” value was “inactive”.

Consider `CC(=O)N(\C=C/C=C/C=C1\Sc2ccccc2C1=O)c1ccccc1`, for which the “GFP fluorescence, higher = induction” value is “inactive”.

In the case of `CN1CCN(C(=O)c2cc(COc3c(F)cccc3F)on2)CC1c1ccccc1` (configuration not stated), the “GFP fluorescence, higher = induction” value is “inactive”.

As to `Oc1ccc(CNc2ccccc2)c2cccnc12`, the “GFP fluorescence, higher = induction” value is “inactive”.

With `Cc1ccccc1OCC(=O)NNC(=S)NC(=O)c1ccco1`, the “GFP fluorescence, higher = induction” value is “inactive”.

With `O=[N+]([O-])c1ccc(O)c(/C=N/Nc2ccccn2)c1`, the “GFP fluorescence, higher = induction” value was “inactive”.

Turning to `CC(C)(C)c1cc(C(c2cccnc2)N2CCN(CCO)CC2)cc(C(C)(C)C)c1O` (configuration not stated), the “GFP fluorescence, higher = induction” value was “inactive”.

Take `O=C(CS(=O)c1ccccc1[N+](=O)[O-])Oc1ccc(Br)cc1` (configuration not stated): the “GFP fluorescence, higher = induction” value was “inactive”.

Turning to `COc1ccc(/C=C/C(=O)C2C(=O)C=C(C)OC2=O)cc1O` (configuration not stated), the “GFP fluorescence, higher = induction” value was “inactive”.

Turning to `O=C(Oc1oc(-c2ccco2)nc1C=Nc1ccc(Cl)cc1)c1ccco1`, the “GFP fluorescence, higher = induction” value is “inactive”.

Consider `O=C(O)c1ccc2c(c1)C(=O)/C(=C/c1ccccc1)C2=O`, for which the “GFP fluorescence, higher = induction” value is “inactive”.

As for `CN(C)c1ccc(N=Cc2nc(-c3ccccc3)oc2OC(=O)c2cccc(Cl)c2)cc1`, the “GFP fluorescence, higher = induction” value is “inactive”.

`COc1cccc(/C=N/Nc2ccc([N+](=O)[O-])cn2)c1O`: the “GFP fluorescence, higher = induction” value was “inactive”.

As to `Cc1sc(/C=C2\C(=O)ON=C2c2ccccc2)cc1Br`, the “GFP fluorescence, higher = induction” value was “inactive”.

Take `COc1cccc(/C=C2\C(=O)N(c3cccc(C)c3)C(=O)c3ccccc32)c1`: the “GFP fluorescence, higher = induction” value was “inactive”.

In the case of `C#CCOCCOCCOCCNc1nc(N2CCN(C(=O)CCCCCCCCCCNC(=O)[C@H](CCCCN)n3cc(CCCC(=O)O)nn3)CC2)nc(N2CCN(C(=O)CCCCCCCCCCNC(=O)[C@H](CCCN=C(N)N)n3cc(C[C@@H](C)CC)nn3)CC2)n1`, the “GFP fluorescence, higher = induction” value was “inactive”.

For `Cc1ccc(C(=O)/C=C/C(=O)c2ccc(C)cc2)cc1`, the “GFP fluorescence, higher = induction” value was “inactive”.

For `CCN1/C(=C/C(C)=C/c2sc3ccccc3[n+]2CC)Sc2ccccc21`, the “GFP fluorescence, higher = induction” value is “inactive”.

For `Cc1ccccc1OCCOC(=O)c1ccc(S(=O)(=O)N2CCCC2)cc1`, the “GFP fluorescence, higher = induction” value is “inactive”.

Consider `Cc1ccc(C(=O)O)cc1N=Cc1cc(Br)cc(Br)c1O`, for which the “GFP fluorescence, higher = induction” value is “inactive”.

Turning to `Cc1ccc(-c2nc(N)c3c(-c4ccc(C)cc4)nn(C(C)(C)C)c3n2)cc1`, the “GFP fluorescence, higher = induction” value is “inactive”.

For `CCOc1ccccc1/C=c1\sc2ncnn2c1=O`, the “GFP fluorescence, higher = induction” value is “inactive”.

In the case of `COc1ccc(N2C(=O)C(Cl)=C(Oc3cccc(OC)c3)C2=O)cc1`, the “GFP fluorescence, higher = induction” value is “inactive”.

`CCc1ccc(OCC(=O)NNC(=S)NC(=O)C2CC2)c(Br)c1`: the “GFP fluorescence, higher = induction” value is “inactive”.

On to `COc1ccccc1N=Cc1nc(-c2ccccc2)oc1OC(C)=O`, for which the “GFP fluorescence, higher = induction” value is “inactive”.

In the case of `COc1ccc(CCNC2=C(Cl)C(=O)N(CCc3ccccc3)C2=O)cc1OC`, the “GFP fluorescence, higher = induction” value was “inactive”.

`CCOc1ccc(N/N=C(/C#N)C(N)=O)cc1`: the “GFP fluorescence, higher = induction” value is “inactive”.

Regarding `CCN(CC)c1ccc(/C=C2/C(=O)c3ccc(C(=O)O)cc3C2=O)cc1`, the “GFP fluorescence, higher = induction” value is “inactive”.

On to `COc1ccc(C(=O)/C=C2/C(=O)Nc3ccccc32)cc1`, for which the “GFP fluorescence, higher = induction” value was “inactive”.

Regarding `O=C1C(Cl)=C(NCCc2ccccc2)C(=O)N1CCc1ccccc1`, the “GFP fluorescence, higher = induction” value was “inactive”.

With `Cc1cc(C(=O)COC(=O)c2ccc[nH]c2=O)c(C)n1-c1ccccc1F`, the “GFP fluorescence, higher = induction” value was “inactive”.

Take `O=C(Nc1nnc(-c2ccc3c(c2)CCCC3)o1)c1ccc(Cl)cc1Cl`: the “GFP fluorescence, higher = induction” value was “inactive”.

With `Cc1[nH]n(-c2ncc(-c3ccccc3)s2)c(=O)c1C(c1ccc(Cl)cc1)C(C#N)C#N` (configuration not stated), the “GFP fluorescence, higher = induction” value was “inactive”.
